{
  "source": "patent US20230241081A1",
  "about": "“Method for Treating Melanoma” (The Regents of the University of Colorado, a body corporate, priority 2020, published 2023)",
  "molecular_target": "T1, PRL-3 (Homo sapiens, UniProt O75365)",
  "T1 construct": "endogenous in cells; host or cells: BT-20 cells",
  "T1 sequence (O75365 whole entry)": "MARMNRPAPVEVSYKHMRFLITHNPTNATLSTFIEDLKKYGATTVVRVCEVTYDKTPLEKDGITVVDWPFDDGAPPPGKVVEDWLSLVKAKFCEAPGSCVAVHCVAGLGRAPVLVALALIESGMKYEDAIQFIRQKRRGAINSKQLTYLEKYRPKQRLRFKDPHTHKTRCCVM",
  "test": "PRL-3 degradation in BT-20 cells",
  "format": "cell-based",
  "conditions": "proteasomal inhibitor with 100 nM compound A, FIG. 6",
  "note": "Residues, ends and D or L forms follow the SMILES beside them. *: point of attachment. Cbz = O=C(OCc1ccccc1)*",
  "data": [
    {"compound": "CC(C)C[C@@H](C=O)NC(=O)[C@H](CC(C)C)NC(=O)[C@H](CC(C)C)NC(=O)OCc1ccccc1", "note": "[MG-132] (Cbz-Leu-Leu-Leu-aldehyde)", "values": [
      {"measurement": "effect on compound A-mediated degradation of PRL-3", "result": "block compound A-mediated degradation of PRL-3"}
    ]}
  ]
}
